Assay [1] deals with T1, Progesterone receptor (Homo sapiens, UniProt P06401).
T1 sequence (P06401 whole entry): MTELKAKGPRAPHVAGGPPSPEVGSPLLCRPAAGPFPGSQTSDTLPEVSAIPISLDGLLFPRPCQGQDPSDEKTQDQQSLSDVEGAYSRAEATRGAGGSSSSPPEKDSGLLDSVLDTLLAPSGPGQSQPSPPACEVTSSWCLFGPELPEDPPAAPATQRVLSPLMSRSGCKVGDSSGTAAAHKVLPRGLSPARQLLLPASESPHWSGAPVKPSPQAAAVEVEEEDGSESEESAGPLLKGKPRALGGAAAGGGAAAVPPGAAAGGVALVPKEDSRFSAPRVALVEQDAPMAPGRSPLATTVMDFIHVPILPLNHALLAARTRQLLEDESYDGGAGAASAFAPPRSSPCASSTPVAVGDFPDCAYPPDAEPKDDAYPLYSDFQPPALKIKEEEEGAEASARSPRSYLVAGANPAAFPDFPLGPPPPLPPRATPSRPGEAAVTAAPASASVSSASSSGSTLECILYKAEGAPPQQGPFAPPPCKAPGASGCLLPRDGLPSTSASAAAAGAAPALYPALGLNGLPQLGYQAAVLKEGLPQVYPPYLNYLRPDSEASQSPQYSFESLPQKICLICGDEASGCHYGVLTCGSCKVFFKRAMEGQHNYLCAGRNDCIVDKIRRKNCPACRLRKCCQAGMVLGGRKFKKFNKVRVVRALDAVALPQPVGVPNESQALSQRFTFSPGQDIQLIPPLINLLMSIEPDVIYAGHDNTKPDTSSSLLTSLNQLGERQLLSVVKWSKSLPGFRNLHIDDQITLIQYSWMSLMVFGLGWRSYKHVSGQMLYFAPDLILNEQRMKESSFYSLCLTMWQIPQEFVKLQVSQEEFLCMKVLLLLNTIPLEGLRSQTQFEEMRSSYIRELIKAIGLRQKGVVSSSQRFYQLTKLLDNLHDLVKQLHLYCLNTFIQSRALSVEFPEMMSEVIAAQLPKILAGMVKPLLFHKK

Assay [2] has as its target Acetylcholinesterase (Homo sapiens, UniProt P22303). Type of assay: functional.
Assay [3] deals with T2, B1 bradykinin receptor (Homo sapiens, UniProt P46663).
T2 sequence (P46663 whole entry): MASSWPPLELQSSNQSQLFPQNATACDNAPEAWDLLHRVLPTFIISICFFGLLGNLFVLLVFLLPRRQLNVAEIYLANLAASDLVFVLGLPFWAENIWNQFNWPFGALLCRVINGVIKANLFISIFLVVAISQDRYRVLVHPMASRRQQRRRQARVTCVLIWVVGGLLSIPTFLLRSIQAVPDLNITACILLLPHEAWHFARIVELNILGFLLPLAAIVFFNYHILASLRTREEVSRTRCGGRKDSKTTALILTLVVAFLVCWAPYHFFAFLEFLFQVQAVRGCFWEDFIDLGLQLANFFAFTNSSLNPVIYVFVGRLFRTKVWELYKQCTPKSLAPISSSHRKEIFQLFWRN

Assay [4] has as its target T3, Corticotropin-releasing factor receptor 1 (Homo sapiens, UniProt P34998).
T3 sequence (P34998 whole entry): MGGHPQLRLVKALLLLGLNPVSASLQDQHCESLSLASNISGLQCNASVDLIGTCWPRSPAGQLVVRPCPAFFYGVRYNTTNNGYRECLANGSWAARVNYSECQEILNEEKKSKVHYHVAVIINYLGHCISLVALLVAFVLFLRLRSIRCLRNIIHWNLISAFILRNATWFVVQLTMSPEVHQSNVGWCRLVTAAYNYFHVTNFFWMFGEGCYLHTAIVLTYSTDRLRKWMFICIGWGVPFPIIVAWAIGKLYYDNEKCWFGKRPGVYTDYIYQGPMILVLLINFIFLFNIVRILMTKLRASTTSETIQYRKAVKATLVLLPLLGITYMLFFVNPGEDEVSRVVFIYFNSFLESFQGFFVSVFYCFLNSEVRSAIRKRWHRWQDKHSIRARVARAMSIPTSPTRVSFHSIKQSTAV

The target of assay [5] is T4, Alpha-2A adrenergic receptor (Homo sapiens, UniProt P08913).
T4 sequence (P08913 whole entry): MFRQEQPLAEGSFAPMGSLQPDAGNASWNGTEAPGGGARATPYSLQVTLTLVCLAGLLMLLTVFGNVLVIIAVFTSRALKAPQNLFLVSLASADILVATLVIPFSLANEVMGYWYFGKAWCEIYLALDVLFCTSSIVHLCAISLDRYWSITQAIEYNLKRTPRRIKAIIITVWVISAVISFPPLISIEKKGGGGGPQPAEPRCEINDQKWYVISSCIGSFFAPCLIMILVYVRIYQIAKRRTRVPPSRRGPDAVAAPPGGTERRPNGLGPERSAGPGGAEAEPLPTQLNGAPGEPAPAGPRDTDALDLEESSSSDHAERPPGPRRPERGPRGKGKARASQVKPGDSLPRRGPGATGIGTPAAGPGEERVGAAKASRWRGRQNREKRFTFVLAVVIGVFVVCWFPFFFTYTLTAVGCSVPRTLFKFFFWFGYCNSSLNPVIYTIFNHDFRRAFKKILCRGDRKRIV

Assay [6] deals with T5, 5-hydroxytryptamine receptor 1A (Homo sapiens, UniProt P08908).
T5 sequence (P08908 whole entry): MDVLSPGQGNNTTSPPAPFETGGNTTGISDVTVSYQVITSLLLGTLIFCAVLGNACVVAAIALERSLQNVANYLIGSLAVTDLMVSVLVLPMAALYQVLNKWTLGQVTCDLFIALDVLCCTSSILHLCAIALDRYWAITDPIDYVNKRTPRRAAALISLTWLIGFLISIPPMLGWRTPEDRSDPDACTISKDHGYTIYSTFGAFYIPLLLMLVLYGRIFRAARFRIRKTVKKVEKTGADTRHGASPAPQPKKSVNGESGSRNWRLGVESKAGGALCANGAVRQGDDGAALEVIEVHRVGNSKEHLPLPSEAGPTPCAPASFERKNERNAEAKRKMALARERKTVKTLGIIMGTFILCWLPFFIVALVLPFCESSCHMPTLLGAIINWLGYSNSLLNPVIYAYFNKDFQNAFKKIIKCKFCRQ

The structures appear in SMILES notation. Some results are limits rather than exact numbers.

AC50 data for 23 molecules are collected here from ChEMBL document CHEMBL5291721, “A preclinical secondary pharmacology resource illuminates target-adverse drug reaction associations of marketed drugs” (Nat Commun, 2023).
Note: assay procedure not described here.

Sequence of Acetylcholinesterase (P22303 whole entry): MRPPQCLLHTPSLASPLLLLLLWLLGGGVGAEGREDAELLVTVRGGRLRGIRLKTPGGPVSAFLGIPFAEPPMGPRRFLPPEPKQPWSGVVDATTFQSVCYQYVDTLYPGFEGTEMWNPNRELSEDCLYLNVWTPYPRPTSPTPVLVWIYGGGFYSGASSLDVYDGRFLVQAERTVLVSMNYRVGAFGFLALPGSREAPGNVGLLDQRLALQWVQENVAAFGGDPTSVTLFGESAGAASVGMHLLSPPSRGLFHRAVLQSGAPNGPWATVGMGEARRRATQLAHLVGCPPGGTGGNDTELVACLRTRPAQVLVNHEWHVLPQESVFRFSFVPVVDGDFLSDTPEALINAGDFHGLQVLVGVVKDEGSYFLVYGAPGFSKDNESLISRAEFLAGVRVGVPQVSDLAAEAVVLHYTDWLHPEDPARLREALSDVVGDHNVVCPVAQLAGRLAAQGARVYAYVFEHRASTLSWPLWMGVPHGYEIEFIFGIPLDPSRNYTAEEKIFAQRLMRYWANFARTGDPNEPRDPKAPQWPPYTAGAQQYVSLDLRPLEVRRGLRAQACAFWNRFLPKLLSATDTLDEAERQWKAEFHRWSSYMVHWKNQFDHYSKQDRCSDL

What is called AC50 is the concentration giving half of the maximal activity seen. Low readings indicate greater potency, high ones weaker potency. Take `C=CC1=C(C(=O)O)N2C(=O)[C@@H](NC(=O)/C(=N\O)c3csc(N)n3)[C@H]2SC1`: the AC50 in assay [1] was > 30 µM.
With `CO[C@@H]1[C@@H](OC(N)=O)[C@@H](O)[C@H](Oc2ccc3c(O)c(NC(=O)c4ccc(O)c(CC=C(C)C)c4)c(=O)oc3c2C)OC1(C)C` [NOVOBIOCIN], in assay [2], the AC50 was > 30 µM.
Still for that read-out and setting: for `C[C@@H](O)[C@H]1C(=O)N2C(C(=O)O)=C(SCCN=CN)C[C@H]12` [IMIPENEM ANHYDROUS] the value was > 300 µM.
On the same count and under the same terms, the result for `CN1CC2c3ccccc3Oc3ccc(Cl)cc3C2C1` (configuration not stated) [ASENAPINE] reads > 30 µM.
Consider `C[C@]12CCC(=O)C=C1CC[C@H]1[C@@H]3CC[C@](O)(C(=O)CO)[C@@]3(C)C[C@H](O)[C@@]12F` [FLUDROCORTISONE], for which the AC50 in assay [3] is > 30 µM; in assay [4], > 30 µM; in assay [1], > 30 µM; in assay [5] it was > 10 µM; in assay [6], > 10 µM.
On to `c1cnc2cc3c(cc2n1)[C@@H]1CNC[C@H]3C1` [VARENICLINE], for which, in assay [2], the AC50 is > 30 µM.
On the same count and under the same terms, the result for `Cn1cnc2c(F)c(Nc3ccc(Br)cc3F)c(C(=O)NOCCO)cc21` [BINIMETINIB] reads > 30 µM.
In the case of `Cc1c(C)c2c(c(C)c1O)CCC(C)(COc1ccc(CC3SC(=O)NC3=O)cc1)O2` (configuration not stated) [TROGLITAZONE], the AC50 in assay [3], in assay [4] and in assay [1] was > 30 µM each time.
Turning to `CN(C)CCC=C1c2ccccc2CCc2ccccc21` [AMITRIPTYLINE], the AC50 is > 30 µM in assay [3]; > 30 µM in assay [4]; > 30 µM in assay [1]; 2.92 µM in assay [5]; 3.77 µM in assay [6].
`CC(=O)Oc1ccccc1C(=O)O` [ASPIRIN]: the AC50 was > 30 µM in assay [3]; > 30 µM in assay [4]; > 30 µM in assay [1]; > 10 µM in assay [5]; > 10 µM in assay [6].
For `CN(C)CCCC1(c2ccc(F)cc2)OCc2cc(C#N)ccc21` (configuration not stated) [CITALOPRAM], the AC50 in assay [3] was > 30 µM; in assay [4] it was > 30 µM; in assay [1] it was > 30 µM; in assay [5], > 10 µM; in assay [6], > 10 µM.
Turning to `C[C@H](Nc1ncnc2[nH]cnc12)c1cc2cccc(Cl)c2c(=O)n1-c1ccccc1` [DUVELISIB], the AC50 in assay [2] is > 30 µM.
The same measure, in the same setting: the result for `O=C1[C@@H]2[C@H]3CC[C@H](C3)[C@@H]2C(=O)N1C[C@@H]1CCCC[C@H]1CN1CCN(c2nsc3ccccc23)CC1` [LURASIDONE] reads 1.3 µM.
With `CCOC(=O)[C@H](CCc1ccccc1)N[C@@H](C)C(=O)N1Cc2ccccc2C[C@H]1C(=O)O`, the AC50 in assay [3] is > 30 µM; in assay [4], > 30 µM; in assay [1], > 30 µM; in assay [5] it was > 10 µM; in assay [6] it was > 10 µM.
With `OCCOCCN1CCN(C(c2ccccc2)c2ccc(Cl)cc2)CC1` (configuration not stated) [HYDROXYZINE], the AC50 was > 30 µM in assay [3], > 30 µM in assay [4], 12.8 µM in assay [5] and > 10 µM in assay [6].
Consider `CC(=O)SCC(Cc1ccccc1)C(=O)NCC(=O)OCc1ccccc1` (configuration not stated) [RACECADOTRIL], for which the AC50 in assay [1] was > 30 µM; in assay [5], > 10 µM; in assay [6] it was > 10 µM.
For the molecule `CCOc1ccccc1OCCN[C@H](C)Cc1ccc(OC)c(S(N)(=O)=O)c1` [TAMSULOSIN], in assay [1], the AC50 is > 30 µM.
On to `O=C(O)COC(=O)Cc1ccccc1Nc1c(Cl)cccc1Cl` [ACECLOFENAC], for which the AC50 was > 30 µM in assay [1] and > 10 µM in assay [6].
With `NCC1(CC(=O)O)CCCCC1` [GABAPENTIN], the AC50 in assay [3] was > 30 µM; in assay [4], > 30 µM; in assay [1] it was > 30 µM; in assay [5], > 10 µM; in assay [6], > 10 µM; in assay [2] it was > 30 µM.
Regarding `C[C@H](CS)C(=O)N1CCC[C@H]1C(=O)O` [CAPTOPRIL], the half-maximal activity concentration (AC50) in assay [1] is > 30 µM; in assay [5] it was > 10 µM; in assay [6] it was > 10 µM.
As to `CCC[C@@]1(CCc2ccccc2)CC(O)=C([C@H](CC)c2cccc(NS(=O)(=O)c3ccc(C(F)(F)F)cn3)c2)C(=O)O1`, in assay [2], the AC50 is > 30 µM.
The same measure, in the same setting: for `C[C@H](CCC(=O)O)[C@H]1CC[C@H]2[C@@H]3[C@H](O)C[C@@H]4C[C@H](O)CC[C@]4(C)[C@H]3CC[C@]12C` [CHENODIOL] the value was > 30 µM.
For `Nc1nnc(-c2cccc(Cl)c2Cl)c(N)n1` [LAMOTRIGINE], the AC50 in assay [3] was > 30 µM; in assay [4], > 30 µM; in assay [1], > 30 µM; in assay [5] it was > 10 µM; in assay [6], > 10 µM.
